Numbers after ± are expanded uncertainties.
What was measured:
[1] = Crystal; DTA
[2] = Molar enthalpy of transition or fusion; conditions: Crystal; DSC

Normal melting temperature [1]: 126.7 ± 0.7 °C
Molar enthalpy of transition or fusion [2]: 8.12 ± 0.167 kcal/mol
Structure (SMILES): Cl.Cl.Fc1ccc([C@@H]2CCNC[C@H]2COc2ccc3c(c2)OCO3)cc1.Fc1ccc([C@@H]2CCNC[C@H]2COc2ccc3c(c2)OCO3)cc1.O [paroxetine hydrochloride hemihydrate]

Reference: the NIST ThermoML archive (doi:10.1016/j.jct.2004.12.006)
